# Experimental data from ChEMBL document CHEMBL1126778, “Adenosine A1 antagonists. 3. Structure-activity relationships on amelioration against scopolamine- or N6-((R)-phenylisopropyl)adenosine-induced cognitive disturbance” (J Med Chem, 1993).
# Tests used:
# Rattus norvegicus [1] = experiment: Retention time in Scopolamine induced avoidance test (performed in rat) for antagonistic activity after peroral administration of 1.25 mg/kg; assay type: functional, organism-based; set-up: dose 1.25 mg/kg
# Rattus norvegicus [2] = experiment: Retention time in Scopolamine induced avoidance test (performed in rat) for antagonistic activity after p.o. administration of 0.31 mg/kg; assay type: functional, organism-based; set-up: dose 0.31 mg/kg
# Mus musculus [3] = experiment: Retention time in (R)-PIA) induced avoidance test (performed in mice) for antagonistic activity after peroral administration of 0.31 mg/kg; assay type: functional, organism-based; set-up: dose 0.31 mg/kg
# Mus musculus [4] = experiment: Retention time in (R)-PIA) induced avoidance test (performed in mice) for antagonistic activity after peroral administration of 0.08 mg/kg; assay type: functional, organism-based; set-up: dose 0.08 mg/kg
# Mus musculus [5] = experiment: Acquisition time in (R)-PIA) induced avoidance test (performed in mice) for antagonistic activity after p.o. administration of 0.31 mg/kg; assay type: functional; settings: route oral
# Mus musculus [6] = experiment: Acquisition time in (R)-PIA) induced avoidance test (performed in mice) for antagonistic activity after peroral administration of 0.08 mg/kg; assay type: functional; settings: route oral
# Mus musculus [7] = experiment: Retention time in (R)-PIA) induced avoidance test (performed in mice) for antagonistic activity after peroral administration of 5 mg/kg; assay type: functional, organism-based; set-up: dose 5 mg/kg
# Rattus norvegicus [8] = experiment: Retention time in Scopolamine induced avoidance test (performed in rat) for antagonistic activity after peroral administration of 20 mg/kg; assay type: functional, organism-based; set-up: dose 20 mg/kg
# Rattus norvegicus [9] = experiment: Acquisition time in Scopolamine induced avoidance test (performed in rat) for antagonistic activity after p.o. administration of 5 mg/kg; assay type: functional; settings: route oral
# Rattus norvegicus [10] = experiment: Retention time in Scopolamine induced avoidance test (performed in […]) for antagonistic activity after peroral administration of 5 mg/kg; assay type: functional, organism-based; set-up: dose 5 mg/kg
# Rattus norvegicus [11] = experiment: Acquisition time in Scopolamine induced avoidance test (performed in rat) for antagonistic activity after peroral administration of 1.25 mg/kg; assay type: functional; settings: route oral
# Mus musculus [12] = experiment: Retention time in (R)-PIA) induced avoidance test (performed in mice) for antagonistic activity after peroral administration of 0.02 mg/kg
# Rattus norvegicus [13] = experiment: Acquisition time in Scopolamine induced avoidance test (performed in rat) for antagonistic activity after p.o. administration of 0.31 mg/kg; assay type: functional; settings: route oral
# Rattus norvegicus [14] = experiment: Retention time in Scopolamine induced avoidance test (performed in rat) for antagonistic activity after p.o. administration of 0.08 mg/kg; assay type: functional, organism-based; set-up: dose 0.08 mg/kg
# Rattus norvegicus [15] = experiment: Acquisition time in Scopolamine induced avoidance test (performed in rat) for antagonistic activity after peroral administration of 20 mg/kg; assay type: functional; settings: route oral
# Mus musculus [16] = experiment: Acquisition time in (R)-PIA) induced avoidance test (performed in mice) for antagonistic activity after p.o. administration of 1.25 mg/kg; assay type: functional; settings: route oral
# Mus musculus [17] = experiment: Acquisition time in (R)-PIA) induced avoidance test (performed in mice) for antagonistic activity after peroral administration of 0.02 mg/kg; settings: route oral
# Rattus norvegicus [18] = experiment: Acquisition time in Scopolamine induced avoidance test (performed in rat) for antagonistic activity after p.o. administration of 0.08 mg/kg; assay type: functional; settings: route oral
# Mus musculus [19] = experiment: Acquisition time in (R)-PIA) induced avoidance test (performed in mice) for antagonistic activity after peroral administration of 5 mg/kg; assay type: functional; settings: route oral
# Adenosine receptor A1 [20] = molecular target: T1, Adenosine receptor A1 (Rattus norvegicus, UniProt P25099); experiment: Tested for binding affinity against Adenosine A1 receptor from rat forebrain membranes, using N6-[3H]- cyclohexyladenosine as radioligand
# T1 sequence (P25099 whole entry): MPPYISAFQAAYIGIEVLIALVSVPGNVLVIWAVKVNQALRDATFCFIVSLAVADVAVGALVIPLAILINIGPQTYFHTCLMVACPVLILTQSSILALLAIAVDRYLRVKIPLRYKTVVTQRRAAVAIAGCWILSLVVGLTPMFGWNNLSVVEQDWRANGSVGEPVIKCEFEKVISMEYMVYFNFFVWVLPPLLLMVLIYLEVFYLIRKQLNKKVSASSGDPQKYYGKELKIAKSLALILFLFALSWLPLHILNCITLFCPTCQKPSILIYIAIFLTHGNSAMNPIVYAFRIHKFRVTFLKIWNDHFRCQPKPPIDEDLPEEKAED
# Mus musculus [21] = experiment: Retention time in (R)-PIA) induced avoidance test (performed in mice) for antagonistic activity after p.o. administration of 1.25 mg/kg; assay type: functional, organism-based; set-up: dose 1.25 mg/kg
# Adenosine A2 receptor = Adenosine A2 receptor (Rattus norvegicus, UniProt P29276+P30543); experiment: Binding affinity at Adenosine A2 receptor from rat striatal membranes by N-[3H] ethyladenosin-5'- uronamide displacement.
# Mus musculus [22] = experiment: Acquisition time in (R)-PIA) induced avoidance test (performed in mice) for antagonistic activity after peroral administration of 20 mg/kg; assay type: functional; settings: route oral
# Mus musculus [23] = experiment: Retention time in (R)-PIA) induced avoidance test (performed in mice) for antagonistic activity after peroral administration of 20 mg/kg; assay type: functional, organism-based; set-up: dose 20 mg/kg
# Adenosine receptor A1 [24] = molecular target: T2, Adenosine receptor A1 (Cavia porcellus, UniProt P47745); experiment: Binding affinity against Adenosine A1 receptor from guinea pig forebrain membranes by N6-[3H]- cyclohexyladenosine displacement.
# T2 sequence (P47745 whole entry): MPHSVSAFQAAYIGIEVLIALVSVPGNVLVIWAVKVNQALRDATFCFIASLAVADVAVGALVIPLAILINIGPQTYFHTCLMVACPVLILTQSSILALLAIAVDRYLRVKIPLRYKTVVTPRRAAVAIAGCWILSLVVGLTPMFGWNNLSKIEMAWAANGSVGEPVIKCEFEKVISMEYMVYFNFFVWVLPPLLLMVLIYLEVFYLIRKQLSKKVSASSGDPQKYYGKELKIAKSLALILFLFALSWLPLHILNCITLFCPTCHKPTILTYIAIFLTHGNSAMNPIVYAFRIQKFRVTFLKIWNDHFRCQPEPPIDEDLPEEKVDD
# Mus musculus [25] = experiment: Tested for locomotor activity after oral administration of 10 mg/kg for 120 min; assay type: functional
# Rattus norvegicus [26] = experiment: Acquisition time in Scopolamine induced avoidance test (performed in rat) for antagonistic activity after peroral administration of 0.08 mg/kg; assay type: functional; settings: route oral
# Mus musculus [27] = experiment: Tested for locomotor activity after oral administration of 5 mg/kg for 120 min; assay type: functional
# Mus musculus [28] = experiment: Tested for locomotor activity after oral administration of […] for 120 min; assay type: functional
# Rattus norvegicus [29] = experiment: Acquisition time in Scopolamine induced avoidance test (performed in rat) for antagonistic activity after peroral administration of 5 mg/kg; assay type: functional; settings: route oral
# Mus musculus [30] = experiment: Acquisition time in (R)-PIA) induced avoidance test (performed in mice) for antagonistic activity after peroral administration of 1.25 mg/kg; assay type: functional; settings: route oral
Structure (SMILES),Retention time (Rattus norvegicus [1]) [s],Retention time (Rattus norvegicus [2]) [s],Retention time (Mus musculus [3]) [s],Retention time (Mus musculus [4]) [s],Acquisition time (Mus musculus [5]) [s],Acquisition time (Mus musculus [6]) [s],Retention time (Mus musculus [7]) [s],Retention time (Rattus norvegicus [8]) [s],Acquisition time (Rattus norvegicus [9]) [s],Retention time (Rattus norvegicus [10]) [s],Acquisition time (Rattus norvegicus [11]) [s],Retention time (Mus musculus [12]) [s],Acquisition time (Rattus norvegicus [13]) [s],Retention time (Rattus norvegicus [14]) [s],Acquisition time (Rattus norvegicus [15]) [s],Acquisition time (Mus musculus [16]) [s],Acquisition time (Mus musculus [17]) [s],Acquisition time (Rattus norvegicus [18]) [s],Acquisition time (Mus musculus [19]) [s],Retention time (Mus musculus [21]) [s],also measured
CCCN1C(=O)N2C[C@@H](CC)N=C2c2[nH]c(C34CC5CC(CC3C5)C4)nc21,80.9,74.1,192,156,15.9,35.1,186,76.6,14.4,42.1,20.1,16.1,14.1,27.1,17.2,16.5,13.6,17.3,23.7,326,Ki (Adenosine receptor A1 [20]): 0.56 nM
CCCn1c(=O)c2nc(C34CC5CC(CC3C5)C4)[nH]c2n(CCc2ccc(N)cc2)c1=O,136,95.9,60.3,–,14.8,–,92.5,232,11.9,182,15.3,36,8.3,20.5,18.3,20.3,18.1,12,14.7,168,Ki (Adenosine A2 receptor): > 100000 nM; Acquisition time (Mus musculus [22]): 14.7 s; Retention time (Mus musculus [23]): 98.7 s
COc1cc(/C=C/c2nc3c(c(=O)n(C)c(=O)n3C)n2C)cc(OC)c1OC,33.7,36.3,63.8,–,22.1,–,49.9,26.8,11.3,31.4,26.6,–,21.3,28.9,13.2,24.7,–,9.9,33.8,23,Acquisition time (Mus musculus [22]): 21 s; Retention time (Mus musculus [23]): 74.9 s
CCCn1c(=O)c2[nH]c(C34CC5CC(CC(C5)C3)C4)nc2n(CCC)c1=O,–,–,–,–,–,–,–,–,–,–,–,–,–,–,–,–,–,–,–,–,Ki (Adenosine receptor A1 [20]): 1.5 nM
CCCn1c(=O)c2[nH]c(C3CCC(=O)C3)nc2n(CCc2ccc(N)cc2)c1=O (stereo unspecified),–,–,–,–,–,–,–,–,–,–,–,–,–,–,–,–,–,–,–,–,Ki (Adenosine receptor A1 [24]): 23 nM
CCCn1c(=O)c2nc(C3CC4CCCC4C3)[nH]c2n(CCC)c1=O (stereo unspecified),18,29.6,140,83.2,23.3,24,384,35.1,11.1,22.6,9.5,18.5,11.1,30.7,9.9,14.5,13.4,10.8,42.7,317,Ki (Adenosine receptor A1 [20]): 0.75 nM
CCCn1c(=O)c2[nH]c(C(C3CC3)C3CC3)nc2n(CCC)c1=S,–,–,–,–,–,–,–,–,–,–,–,–,–,–,–,–,–,–,–,–,Ki (Adenosine receptor A1 [24]): 6.1 nM
CCCn1c(=O)c2nc(C34CC5CC(CC(C5)C3)C4)[nH]c2n(CCC)c1=O,14.1,21.3,302,122,19.6,19.1,221,35,11.7,16.3,12.8,17.6,16.6,34.8,8.4,19.8,10.1,11,13.7,490,–
Cn1c(=O)c2nc[nH]c2n(C)c1=O.O [THEOPHYLLINE],–,–,–,–,35.8,30.8,–,–,–,–,11.1,–,12.2,–,10.6,–,–,–,20.3,–,Locomotor activity (Mus musculus [25]): 11031 Counts; Acquisition time (Rattus norvegicus [26]): 10.6 s; Locomotor activity (Mus musculus [27]): 7682 Counts; Locomotor activity (Mus musculus [28]): 5914 Counts; Acquisition time (Rattus norvegicus [29]): 10.8 s; Acquisition time (Mus musculus [30]): 16.2 s
